US20230364057A1, “BACTERIAL DNA GYRASE INHIBITORS AND METHODS OF USE THEREOF” (THE FLORIDA INTERNATIONAL UNIVERSITY BOARD OF TRUSTEES, priority 2022, published 2023)
Values after ≈ are worked out from the molar mass of the structure shown.

What was measured:
B. subtilis (ATCC 6633) = assay: Minimum inhibitory concentration, broth microdilution; details: Bacillus subtilis, ATCC6633, read-out: Minimum Inhibitory Concentration B.subtilis
Method: (§1) Antibacterial minimum inhibitory concentrations (MICs) were obtained from three independent experiments using broth microdilution methods in 96-well plates according to Clinical and Laboratory Standards Institute guidelines. Cells were culture from singles colonies in MHIIB medium for 24 h at 37° C. in agitation (200 RPM). The cultures were then diluted using the same media to reach an OD600 of 0.1. Then, 50 µL of the diluted cultures were added to the plates holding 50 µL of serially diluted compounds in MHIIB. The plates were incubated at 37° C. for 20 h. The starting inoculum was fixated to 10^5 colony-forming units per ml.

S. aureus (ATCC 14775) = assay: as above; details: for MIC: Staphylococcus aureus, ATCC14775, read-out: Minimum Inhibitory Concentration S.aureus
Method: as §1

MRSA = assay: as above; details: for MIC: Staphylococcus aureus, MRSA, read-out: Minimum Inhibitory Concentration S.aureus MRSA
Method: as §1

E. coli DNA gyrase [1] = biological target: T1, E. coli DNA gyrase (Escherichia coli (strain K12), UniProt P0AES4+P0AES6); assay: biochemical; assay type: biochemical
E. coli DNA gyrase [2] = biological target: T1, E. coli DNA gyrase; assay: Agarose gel-based DNA gyrase inhibition assay; assay type: biochemical
Method: 100 ng of DNA gyrase was used to supercoil the rx pAB1 in the presence of different concentrations of a gyrase inhibitor. […] Samples were analyzed by electrophoresis in 1% w/v agarose gels followed by ethidium bromide staining and photographed under UV light.

[3] = IC50 ([…]-50 µM), bin of Table 2
[4] = IC50 (50-200 µM), bin of Table 2
[5] = IC50 (15-[…] µM), bin of Table 2
[6] = IC50 against E. coli DNA gyrase

Structure (SMILES) | MIC (B. subtilis (ATCC 6633)) [µM] | MIC (S. aureus (ATCC 14775)) [µM] | MIC (MRSA) [µM] | inhibition of E. coli DNA gyrase activities (E. coli DNA gyrase [2]; 200 µM of compounds) | inhibition of E. coli DNA gyrase activities (E. coli DNA gyrase [2]; 50 µM of compounds) | IC50 (E. coli DNA gyrase [1]; [4]) [µM] | also measured
Cc1ccccc1NC1=C/C(=N/S(=O)(=O)c2ccc(C(=O)O)cc2)c2ccccc2C1=O [Compound 4] | 100 (≈ 44.6 µg/mL) | 50 (≈ 22.3 µg/mL) | 50 (≈ 22.3 µg/mL) | completely inhibited |  |  | IC50 (E. coli DNA gyrase [1]; [3]): 25 to 50 µM
Cc1cc(C)c2c(c1)C(=NNc1ccc(C(=O)O)cc1)C(O)=N2 [Compound 9, 4-[2-(5,7-Dimethyl-2-oxoindol-3-yl)hydrazinyl]benzoic acid] | 25 (≈ 7.73 µg/mL) | 3.12 (≈ 0.967 µg/mL) | 3.12 (≈ 0.967 µg/mL) | completely inhibited | completely inhibited |  | growth of S. aureus (S. aureus (ATCC 14775)): strongly inhibited the growth; growth of MRSA (MRSA): strongly inhibited the growth; inhibition of E. coli DNA gyrase activities (E. coli DNA gyrase [1]): potent gyrase inhibitor
Cc1cc(/C=C2\SC(=S)N=C2O)c(C)n1-c1cccc(O)c1 [Compound 21] | 100 (≈ 33 µg/mL) |  |  | completely inhibited | completely inhibited |  | IC50 (E. coli DNA gyrase [1]; [3]): 25 to 50 µM
O=C(O)CCCCCN1C(=O)/C(=C\c2ccc(-c3ccc(Cl)cc3)o2)SC1=S [Compound 36] | 12.5 (≈ 5.45 µg/mL) |  |  | completely inhibited | completely inhibited |  | 
O=C(O)CCCN1C(=O)C(=Cc2ccc(-c3nc4ccccc4s3)o2)SC1=S [Compound 41] | 6.25 (≈ 2.69 µg/mL) |  |  | completely inhibited | completely inhibited |  | 
O=C1/C(=C\c2ccc(O)cc2)SC(=S)N1Cc1ccccc1 [Compound 44] | 25 (≈ 8.19 µg/mL) | 12.5 (≈ 4.09 µg/mL) | 25 (≈ 8.19 µg/mL) | completely inhibited |  | 50 to 200 | 
CN1C[C@H](CNC(=O)OCc2ccccc2)C[C@@H]2c3cccc4c3c(cn4C)C[C@H]21 [Compound 45] | 100 (≈ 40.4 µg/mL) | 100 (≈ 40.4 µg/mL) | 100 (≈ 40.4 µg/mL) | almost completely inhibited |  | 50 to 200 | 
COC(=O)c1c(NC(=O)CC2Nc3ccccc3NC2=O)sc(C)c1C (stereo not drawn) [Compound 55] |  |  | 25 (≈ 9.34 µg/mL) | almost completely inhibited |  | 50 to 200 | 
Cc1ccc(-c2csc(NC(=O)c3cccc(C)c3)c2C(=O)O)cc1 [Compound 58] | 100 (≈ 35.1 µg/mL) | 100 (≈ 35.1 µg/mL) | 100 (≈ 35.1 µg/mL) | completely inhibited |  | 50 to 200 | 
O=C(O)c1cc(O)c2c(c1)C(=O)c1cccc(O)c1C2=O [Compound 82] | 50 (≈ 14.2 µg/mL) | 50 (≈ 14.2 µg/mL) |  | almost completely inhibited |  | 50 to 200 | 
CCc1ccc(S(=O)(=O)/N=C2/C=C(Nc3ccc(C(=O)O)cc3)C(=O)c3ccccc32)cc1 [Compound 104] | 50 (≈ 23 µg/mL) | 100 (≈ 46.1 µg/mL) | 100 (≈ 46.1 µg/mL) |  | completely inhibited |  | IC50 (E. coli DNA gyrase [1]; [3]): 25 to 50 µM
CNc1nnc(-c2ccc(C)cc2)c2ccccc12 [Compound 108] |  | 200 (≈ 49.9 µg/mL) | 200 (≈ 49.9 µg/mL) |  | completely inhibited |  | IC50 (E. coli DNA gyrase [1]; [5]): 15 to 25 µM
O=C(O)c1ccc(NN=C2c3cc(Br)ccc3NC2O)cc1 (stereo not drawn) [Compound 111] | 100 (≈ 36.2 µg/mL) |  |  |  | completely inhibited |  | 
O=C(O)c1ccc(/N=N/C2C(O)=Nc3ccc(Cl)cc32)cc1 (stereo not drawn) [Compound 126] | 100 (≈ 31.6 µg/mL) | 100 (≈ 31.6 µg/mL) | 100 (≈ 31.6 µg/mL) |  | completely inhibited |  | 
O=C(O)C(Cc1ccccc1)N1C(=O)/C(=C\C=C\c2ccco2)SC1=S (stereo not drawn) [Compound 157] | 200 (≈ 77.1 µg/mL) | 200 (≈ 77.1 µg/mL) | 200 (≈ 77.1 µg/mL) |  | completely inhibited |  | 
O=[N+]([O-])c1cc(/C=N/Nc2nc3ccccc3[nH]2)c(O)cc1O [Compound 159] | 200 (≈ 62.7 µg/mL) | 50 (≈ 15.7 µg/mL) | 100 (≈ 31.3 µg/mL) |  | completely inhibited |  | 
CN1C(=O)C(=Cc2ccc(Sc3ccccc3)o2)C(=O)N(C)C1=S [Compound 161] | 200 (≈ 71.7 µg/mL) |  |  |  | completely inhibited |  | IC50 (E. coli DNA gyrase [1]; [5]): 15 to 25 µM
O=C(/C=C/c1ccco1)Nc1cccc2cccnc12 [Compound 164] |  | 200 (≈ 52.9 µg/mL) | 200 (≈ 52.9 µg/mL) |  |  |  | 

Structure (SMILES) | MIC (B. subtilis (ATCC 6633)) [µM] | MIC (S. aureus (ATCC 14775)) [µM] | MIC (MRSA) [µM] | inhibition of E. coli DNA gyrase activities (E. coli DNA gyrase [2]; 200 µM of compounds) | inhibition of E. coli DNA gyrase activities (E. coli DNA gyrase [2]; 50 µM of compounds) | IC50 (E. coli DNA gyrase [1]; [4]) [µM] | also measured
O=C1/C(=C/c2ccc(O)cc2)SC(=S)N1Cc1cccnc1 [Compound 168] |  |  |  |  | potently inhibited | 50 to 200 | 
Cc1ccc(/N=C2N=C(O)/C(=C/C=C/c3ccco3)S\2)cc1C [Compound 169] |  |  |  |  | completely inhibited |  | IC50 (E. coli DNA gyrase [1]; [5]): 15 to 25 µM
Cc1cc(/C=C2/SC(=S)N(c3cccc(Cl)c3)C2=O)c(C)n1-c1cccnc1 [Compound 171] |  |  |  |  | completely inhibited |  | IC50 (E. coli DNA gyrase [1]; [5]): 15 to 25 µM
O=C(NN1C(=O)/C(=C\C=C\c2ccco2)SC1=S)c1ccccc1O [Compound 180] |  |  |  |  | completely inhibited |  | IC50 (E. coli DNA gyrase [1]; [5]): 15 to 25 µM
O=C1N=C(O)/C(=C/c2ccc(N3CCCC3)cc2)C(=O)N1Cc1ccc(F)cc1 [Compound 184] |  | 200 (≈ 78.7 µg/mL) | 200 (≈ 78.7 µg/mL) |  | potently inhibited |  | IC50 (E. coli DNA gyrase [1]; [5]): 15 to 25 µM
COc1cc(C(=O)Nc2scc(-c3ccc(Br)cc3)c2C(=O)O)cc(OC)c1OC [Compound 189] | 100 (≈ 49.2 µg/mL) |  |  |  | completely inhibited |  | IC50 (E. coli DNA gyrase [1]; [3]): 25 to 50 µM
COC(=O)C1C2CC3c4[nH]c5cc(OC)ccc5c4CCN3CC2CC(OC(=O)c2ccc(N)cc2)C1OC (stereo not drawn) [Compound 204] |  |  |  | potently inhibited |  | 50 to 200 | 
O=C1C(Cl)=C(NCCc2ccccc2)C(=O)c2ccccc21 [Compound 205] |  |  |  | potently inhibited |  | 50 to 200 | 
O=C1c2ccccc2C(=O)c2cc(N3CCCCC3)ccc21 [Compound 206] |  |  |  | potently inhibited |  | 50 to 200 | 
O=C(Cc1ccccc1)c1ccccn1 [Compound 213] |  |  |  | completely inhibited |  | 50 to 200 | 
CCN(CCCNc1cc2c(c(N)c1S(=O)(=O)O)C(=O)c1ccccc1C2=O)c1ccccc1 [Compound 215] |  |  |  | completely inhibited | completely inhibited |  | IC50 (E. coli DNA gyrase [1]; [3]): 25 to 50 µM
Cc1ccc([S+]([O-])c2ccc([N+](=O)[O-])c3nonc23)cc1 (stereo not drawn) [Compound 222] |  |  |  | completely inhibited | completely inhibited |  | IC50 (E. coli DNA gyrase [1]; [3]): 25 to 50 µM
COC1C(C)OC(OC2CC(C)(O)Cc3cc4c(c(O)c32)C(=O)c2c(O)cc3c(c2C4=O)OC2OC3(C)C(O)C(N(C)C)C2O)C(OC)C1(C)OC (stereo not drawn) [Compound 224] |  |  |  | completely inhibited | completely inhibited |  | IC50 (E. coli DNA gyrase [1]; [3]): 25 to 50 µM
CCN1C(=O)C(=CC=CN(C)c2ccccc2)SC1=S [Compound 227] |  |  |  | potently inhibited |  | 50 to 200 | 
CN(C)c1ccc(C=C2SC(=S)N(Cc3ccco3)C2=O)cc1 [Compound 228] |  |  |  | potently inhibited |  | 50 to 200 | 
Cc1cc(O)c2c(c1)C(=O)c1cc(O)cc(O)c1C2=O [Compound 242, Emodin] |  |  |  | completely inhibited |  | 50 to 200 | inhibition of E. coli DNA gyrase activities (E. coli DNA gyrase [1]): potently inhibited
O=C1OC2(c3ccccc31)c1cc(I)c(O)c(I)c1Oc1c2cc(I)c(O)c1I [Compound 253, Erythrosin B] |  |  |  | completely inhibited |  |  | IC50 (E. coli DNA gyrase [1]; [6]): < 10 µM
O=C1c2ccccc2C(=O)c2c1ccc(O)c2O [Compound 256, Alizarin] |  |  |  | completely inhibited |  |  | IC50 (E. coli DNA gyrase [1]; [3]): 25 to 50 µM; IC50 (E. coli DNA gyrase [1]; [6]): < 10 µM
